The source made the active and inactive calls. The calls are words filed in the database; no cut-off is given here.
Assays:
[1] = tested on: MCF7; experiment: Cell cycle arrest in human MCF7 cells assessed as accumulation at S phase at 2 uM after 24 hrs by propidium iodide staining-based flow cytometric analysis (reference value: 12.23%); type: functional
[2] = tested on: MCF7; experiment: Cell cycle arrest in human MCF7 cells assessed as accumulation at G1 phase at 2 uM after 24 hrs by propidium iodide staining-based flow cytometric analysis (reference value: 56.48%); type: functional
[3] = tested on: MCF7; experiment: Cell cycle arrest in human MCF7 cells assessed as accumulation at G0 phase at 2 uM after 24 hrs by propidium iodide staining-based flow cytometric analysis (reference value: 3.36%); type: functional
[4] = tested on: MCF7; experiment: Cytotoxicity against human MCF7 cells assessed as reduction cell viability after 24 hrs by MTT assay; type: functional, cell-based; conditions: MCF7, 24 h
[5] = tested on: DNA; experiment: Binding affinity to calf thymus DNA assessed as change in melting temperature at 1:5 drug/DNA ratio at 37 degC after 18 hrs by spectrophotometry; type: nucleic-acid assay; conditions: Bos taurus
[6] = tested on: MCF7; experiment: Cell cycle arrest in human MCF7 cells assessed as accumulation at G2/M phase at 4 uM after 24 hrs by propidium iodide staining-based flow cytometric analysis (reference value: 27.93%); type: functional
[7] = tested on: MCF7; experiment: Cell cycle arrest in human MCF7 cells assessed as accumulation at S phase at 4 uM after 24 hrs by propidium iodide staining-based flow cytometric analysis (reference value: 12.23%); type: functional
[8] = tested on: MCF7; experiment: Cell cycle arrest in human MCF7 cells assessed as accumulation at G1 phase at 4 uM after 24 hrs by propidium iodide staining-based flow cytometric analysis (reference value: 56.48%); type: functional
[9] = tested on: MCF7; experiment: Cell cycle arrest in human MCF7 cells assessed as accumulation at G0 phase at 4 uM after 24 hrs by propidium iodide staining-based flow cytometric analysis (reference value: 3.36%); type: functional
[10] = tested on: MCF7; experiment: Cell cycle arrest in human MCF7 cells assessed as accumulation at G2/M phase at 2 uM after 24 hrs by propidium iodide staining-based flow cytometric analysis (reference value: 27.93%); type: functional
[11] = tested on: MCF7; experiment: Induction of DNA in human MCF7 cells assessed as increase in phosphorylated gamma-H2AX foci formation measured by immunoflourosence microscopy relative to control; type: functional
[12] = tested on: MCF7; experiment: Induction of apoptosis in human MCF7 cells assessed as increase in P53 tumor suppressor protein expression at 4 uM after 24 hrs by ELISA; type: functional, cell-based
[13] = tested on: MCF7; experiment: Induction of apoptosis in human MCF7 cells assessed as increase in P21 tumor suppressor protein expression at 4 uM after 24 hrs by Western blot analysis; type: functional, cell-based
[14] = tested on: MCF7; experiment: Induction of apoptosis in human MCF7 cells assessed as increase in P53 tumor suppressor protein expression at 4 uM after 24 hrs by Western blot analysis; type: functional, cell-based
[15] = tested on: MCF7; experiment: Induction of apoptosis in human MCF7 cells assessed as increase in active caspase 9 at 4 uM after 24 hrs by Western blot analysis; type: functional, cell-based
[16] = tested on: MCF7; experiment: Induction of apoptosis in human MCF7 cells assessed as decrease in PARP protein expression at 4 uM after 24 hrs by Western blot analysis; type: functional, cell-based
[17] = tested on: MCF7; experiment: Induction of apoptosis in human MCF7 cells assessed as decrease in cyclin D1 expression at 4 uM after 24 hrs by Western blot analysis; type: functional, cell-based

SMILES	Activity [1] [%]	Activity [2] [%]	Activity [3] [%]	IC50 [4] [µM]	ΔTm [5] [°C]	Activity [6] [%]	Activity [7] [%]	Activity [8] [%]	Activity [9] [%]	Activity [10] [%]	Activity [11] [%]	Activity [12]	Activity [13]	Activity [14]	Activity [15]	inhibition [16]	inhibition [17]
COc1cc2c(cc1OCCCCCCN1CCN(C(=O)c3nc(-c4ccccc4)n4ccccc34)CC1)N=C[C@@H]1CCCN1C2=O	10.52	43.15	4.08	3.74	8	20.15	16.52	55.54	7.79	39.25	–	–	–	–	–	–	–
COc1cc2c(cc1OCCCCN1CCN(C(=O)c3nc(-c4ccccc4)n4ccccc34)CC1)N=C[C@@H]1CCCN1C2=O	17.03	48.87	2.8	7.18	8.9	20.95	9.85	63.74	5.47	31.3	–	–	–	–	–	–	–
COc1ccc(-c2nc(C(=O)N3CCN(CCCCCCOc4cc5c(cc4OC)C(=O)N4CCC[C@H]4C=N5)CC3)c3ccccn23)cc1	13.2	41.06	5.39	3.68	8.9	23.56	8.44	54.67	13.33	40.53	–	–	–	–	–	–	–
COc1cc2c(cc1OCCCCCN1CCN(C(=O)c3nc(-c4ccccc4)n4ccccc34)CC1)N=C[C@@H]1CCCN1C2=O	9.84	49.16	4.49	4.16	9	30.74	10	51.6	7.6	36.5	–	–	–	–	–	–	–
COc1cc2c(cc1OCCCCCN1CCN(C(=O)c3nc(-c4ccc(C(F)(F)F)cc4)n4ccccc34)CC1)N=C[C@@H]1CCCN1C2=O	8.48	44.41	5.7	3.16	10.2	25.32	6.9	49.66	17.13	41.41	80	Active	Active	Active	Active	Active	Active
COc1ccc(-c2nc(C(=O)N3CCN(CCCCCOc4cc5c(cc4OC)C(=O)N4CCC[C@H]4C=N5)CC3)c3ccccn23)cc1	10.06	52.76	5.57	5.67	9.9	30.3	10.42	53.22	6.07	31.61	–	–	–	–	–	–	–
O=C(c1nc(-c2ccc(C(F)(F)F)cc2)n2ccccc12)N1CCNCC1	–	–	–	–	2.5	–	–	–	–	–	–	–	–	–	–	–	–
COc1cc2c(cc1OCCCCCCN1CCN(C(=O)c3nc(-c4ccc(C(F)(F)F)cc4)n4ccccc34)CC1)N=C[C@@H]1CCCN1C2=O	9.33	52.92	3.66	4.28	8.7	30.79	9.94	52.13	7.14	34.09	–	–	–	–	–	–	–
COc1cc2c(cc1OCCCCN1CCN(C(=O)c3nc(-c4ccc(C(F)(F)F)cc4)n4ccccc34)CC1)N=C[C@@H]1CCCN1C2=O	12.14	42.94	3.64	3.26	10	18.71	8.78	57.32	15.19	41.29	–	Active	Active	Active	Active	Active	Active
COc1cc2c(cc1OCCCN1CCN(C(=O)c3nc(-c4ccc(C(F)(F)F)cc4)n4ccccc34)CC1)N=C[C@@H]1CCCN1C2=O	10.34	52.63	4.52	5.74	8.8	14.71	9.7	69.36	6.23	32.52	–	–	–	–	–	–	–
COc1ccc(-c2nc(C(=O)N3CCN(CCCOc4cc5c(cc4OC)C(=O)N4CCC[C@H]4C=N5)CC3)c3ccccn23)cc1	19.65	45.35	3.56	6	8.8	13.27	13.81	66.92	6	31.44	–	–	–	–	–	–	–
O=C(O)c1nc(-c2ccc(C(F)(F)F)cc2)n2ccccc12	–	–	–	–	0.3	–	–	–	–	–	–	–	–	–	–	–	–
COc1cc2c(cc1O)N=C[C@@H]1CCCN1C2=O	16.13	53.76	2.83	5	0.7	26.83	13.76	54.08	5.33	27.28	–	Active	Active	Active	–	–	–
COc1ccc(-c2nc(C(=O)N3CCN(CCCCOc4cc5c(cc4OC)C(=O)N4CCC[C@H]4C=N5)CC3)c3ccccn23)cc1	9.89	51.08	4.51	4.17	9.9	22.9	14.04	59.03	7.01	34.52	–	–	–	–	–	–	–
COc1cc2c(cc1OCCCN1CCN(C(=O)c3nc(-c4ccccc4)n4ccccc34)CC1)N=C[C@@H]1CCCN1C2=O	11.86	55.54	4.26	7.21	8.9	30.14	10.19	54.44	5.23	28.35	–	–	–	–	–	–	–

— ChEMBL document CHEMBL3132779, “Design, synthesis and biological evaluation of imidazo[1,5-a]pyridinePBD conjugates as potential DNA-directed alkylating agents” (Medchemcomm, 2013)
